Source: US9096559B2, “4-carboxybenzylamino derivatives as histone deacetylase inhibitors” (Merck Sharp & Dohme Corp., priority 2007, dated 2015)

Key:
[1] = test system: human cervical cancer (HeLa) and colon carcinoma (HCT116) cells; test: ATP (Vialight) cell proliferation assay, 72 hr; assay type: cell-based; settings: IP = inflection point, cell line not given, read-out: Prol-72 hr IP (inflection point)
Method: The novel compounds of the present invention were tested for their ability to inhibit proliferation of the human cervical cancer (HeLa) and colon carcinoma (HCT116) cells.
In this assay, also referred to as the Vialight Assay, cellular ATP levels are measured as a means of quantifying cellular proliferation. This assay makes use of a bioluminescent method from Cambrex (ViaLight PLUS, cat. #LT07-121). In the presence of ATP, luciferase converts luciferin to oxyluciferin and light. The amount of light produced (emission at 565 nm) is measured and correlates with a relative amount of proliferation. Human cervical cancer (HeLa) or colon carcinoma (HCT116) cells were incubated with vehicle or increasing concentrations of compound for 48, 72 or 96 hours. Cell proliferation was quantified by adding the cell lysis reagent (provided in the Vialight assay kit) directly to culture wells, followed by addition of the ATP-monitoring reagent (containing luciferase/luciferin). The amount of light produced is then measured (emission at 565 nm). The quantity of light produced, as measured by […], is directly proportional to the number of living cells in culture.

[2] = molecular target: histone deacetylase, subtype 1 (HDAC1) (Homo sapiens (Human), UniProt Q13547); test: HDAC1-Flag in vitro deacetylation assay; assay type: biochemical; settings: IP = inflection point; read-out: HDAC1 IP (inflection point)
Sequence of histone deacetylase, subtype 1 (HDAC1) (Q13547 whole entry): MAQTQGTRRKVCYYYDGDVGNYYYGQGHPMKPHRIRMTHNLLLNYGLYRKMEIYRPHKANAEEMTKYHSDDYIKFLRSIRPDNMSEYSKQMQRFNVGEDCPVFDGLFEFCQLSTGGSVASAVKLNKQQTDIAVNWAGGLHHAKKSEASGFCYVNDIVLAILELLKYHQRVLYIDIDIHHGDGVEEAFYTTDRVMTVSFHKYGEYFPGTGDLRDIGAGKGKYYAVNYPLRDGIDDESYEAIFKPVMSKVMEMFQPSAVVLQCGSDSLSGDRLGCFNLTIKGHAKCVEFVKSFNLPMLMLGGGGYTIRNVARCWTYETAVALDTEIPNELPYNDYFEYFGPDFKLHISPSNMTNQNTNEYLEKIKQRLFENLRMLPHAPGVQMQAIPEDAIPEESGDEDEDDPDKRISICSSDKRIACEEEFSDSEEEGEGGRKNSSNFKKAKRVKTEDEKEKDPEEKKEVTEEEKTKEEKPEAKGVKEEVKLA
Method: Novel compounds were tested for their ability to inhibit histone deacetylase, subtype 1 (HDAC1) using an in vitro deacetylation assay. The enzyme source for this assay was an epitope-tagged human HDAC1 complex immuno-purified from stably expressing mammalian cells. The substrate consisted of a commercial product containing an acetylated lysine side chain (BIOMOL Research Laboratories, Inc., Plymouth Meeting, Pa.). Upon deacetylation of the substrate by incubation with the purified HDAC1 complex, a fluorophore is produced that is directly proportional to the level of deacetylation.

Row | SMILES | IC50 [1] | IC50 [2]
1 | Nc1ccc(-c2cccs2)cc1NC(=O)c1ccc(CNC(=O)[C@@H]2CCCN2)cc1 [Example 57, (2S)-N-[4-({[2-amino-5-(2-thienyl)phenyl]amino}carbonyl)benzyl]pyrrolidine-2-carboxamide] | 280 nM | 18 nM
2 | Nc1ccc(-c2ccccc2)cc1NC(=O)c1ccc(CN2C(=O)OC[C@@H]2c2ccccc2)cc1 [Example 118, N-(4-aminobiphenyl-3-yl)-4-{[(4S)-2-oxo-4-phenyl-1,3-oxazolidin-3-yl]methyl}benzamide] | 1400 nM | 64 nM
3 | Nc1ccc(-c2ccccc2F)cc1NC(=O)c1ccc(CNc2ccncc2)cc1 [Example 67, N-(4-amino-2′-fluoro-3-biphenylyl)-4-[(4-pyridinylamino)methyl]benzamide] | 2100 nM | 23 nM
4 | CC(C)OC(=O)NCc1ccc(C(=O)Nc2cc(-c3ccccc3)ccc2N)cc1 [Example 11, 1-methylethyl[(4-{[(4-aminobiphenyl-3-yl)amino]carbonyl}phenyl)methyl]carbamate] | 130 nM | 
5 | CCCC(=O)NCc1ccc(C(=O)Nc2cc(-c3ccccc3)ccc2N)cc1 [Example 25, N-(4-aminobiphenyl-3-yl)-4-[(butanoylamino)methyl]benzamide] | 220 nM | 17 nM
6 | CC(C)COC(=O)NCc1ccc(C(=O)Nc2cc(-c3ccccc3)ccc2N)cc1 [Example 13, 2-methylpropyl[(4-{[(4-aminobiphenyl-3-yl)amino]carbonyl}phenyl)methyl]carbamate] | 390 nM | 45 nM
7 | Nc1ccc(-c2ccccc2)cc1NC(=O)c1ccc(CN2C(=O)OC[C@@H]2Cc2ccccc2)cc1 [Example 121, N-(4-aminobiphenyl-3-yl)-4-{[(4S)-2-oxo-4-(phenylmethyl)-1,3-oxazolidin-3-yl]methyl}benzamide] | 1400 nM | 96 nM
8 | CC(C)CNCc1ccc(C(=O)Nc2cc(-c3ccccc3)ccc2N)cc1 [Example 65, N-(4-amino-3-biphenylyl)-4-[(isobutylamino)methyl]benzamide] | 900 nM | 35 nM
9 | Nc1ccc(-c2cccs2)cc1NC(=O)c1ccc(CNC(=O)C2CCC2)cc1 [Example 43, N-[2-amino-5-(2-thienyl)phenyl]-4-{[(cyclobutylcarbonyl)amino]methyl}benzamide] | 130 nM | 11 nM
10 | Nc1ccc(-c2ccccc2)cc1NC(=O)c1ccc(CNC(=O)[C@@H]2CCCN2)cc1 [Example 58, (2S)-N-(4-{[(4-aminobiphenyl-3-yl)amino]carbonyl}benzyl)pyrrolidine-2-carboxamide] | 380 nM | 24 nM
11 | Nc1ccc(-c2ccccc2)cc1NC(=O)c1ccc(CNC(=O)C2CCCCC2)cc1 [Example 32, N-(4-aminobiphenyl-3-yl)-4-{[(cyclohexylcarbonyl)amino]methyl}benzamide] | 340 nM | 42 nM
12 | Nc1ccc(-c2ccccc2)cc1NC(=O)c1ccc(CN2C(=O)OC[C@H]2Cc2ccccc2)cc1 [Example 119, N-(4-aminobiphenyl-3-yl)-4-{[(4R)-2-oxo-4-(phenylmethyl)-1,3-oxazolidin-3-yl]methyl}benzamide] | 1700 nM | 89 nM
13 | CCC(=O)NCc1ccc(C(=O)Nc2cc(-c3cccs3)ccc2N)cc1 [Example 37, N-[2-amino-5-(2-thienyl)phenyl]-4-[(propanoylamino)methyl]benzamide] | 130 nM | 12 nM
14 | Nc1ccc(-c2cccs2)cc1NC(=O)c1ccc(CNC(=O)Cc2cccnc2)cc1 [Example 49, N-[2-amino-5-(2-thienyl)phenyl]-4-{[(pyridin-3-ylacetyl)amino]methyl}benzamide] | 170 nM | 10 nM
15 | CCC(=O)NCc1ccc(C(=O)Nc2cc(-c3ccccc3)ccc2N)cc1 [Example 24, N-(4-aminobiphenyl-3-yl)-4-[(propanoylamino)methyl]benzamide] | 120 nM | 17 nM
16 | CC(C)(C)C(=O)NCc1ccc(C(=O)Nc2cc(-c3cccs3)ccc2N)cc1 [Example 41, N-[2-amino-5-(2-thienyl)phenyl]-4-{[(2,2-dimethylpropanoyl)amino]methyl}benzamide] | 170 nM | 16 nM
17 | COCC(C)NCc1ccc(C(=O)Nc2cc(-c3ccccc3)ccc2N)cc1 (stereo not drawn) [Example 66, N-(4-amino-3-biphenylyl)-4-{[(2-methoxy-1-methylethyl)amino]methyl}benzamide] | 1100 nM | 23 nM
18 | Nc1ccc(-c2ccccc2)cc1NC(=O)c1ccc(CNC(=O)OCc2cccnc2)cc1 [Example 1, Pyridin-3-ylmethyl[(4-{[(4-aminobiphenyl-3-yl)amino]carbonyl}phenyl)methyl]carbamate] | 380 nM | 
19 | Nc1ccc(-c2cccs2)cc1NC(=O)c1ccc(CNC(=O)C2CCCCC2)cc1 [Example 45, N-[2-amino-5-(2-thienyl)phenyl]-4-{[(cyclohexylcarbonyl)amino]methyl}benzamide] | 190 nM | 
20 | Nc1ccc(-c2ccccc2)cc1NC(=O)c1ccc(CNC(=O)OCc2ccccc2)cc1 [Example 15, phenylmethyl[(4-{[(4-aminobiphenyl-3-yl)amino]carbonyl}phenyl)methyl]carbamate] | 820 nM | 
21 | CC(C)CNCc1ccc(C(=O)Nc2cc(-c3ccccc3)ccc2O)cc1 [Example 73, N-(4-hydroxy-3-biphenylyl)-4-[(isobutylamino)methyl]benzamide] |  | 110 nM
22 | O=C(NCc1ccc(C(=O)Nc2cc(-c3ccccc3)ccc2O)cc1)OCc1cccnc1 [Example 5, pyridin-3-ylmethyl[(4-{[(4-hydroxybiphenyl-3-yl)amino]carbonyl}phenyl)methyl]carbamate] |  | 20 nM
23 | CC1CCN(Cc2ccc(C(=O)Nc3cc(-c4ccccc4)ccc3O)cc2)CC1 [Example 87, N-(4-hydroxy-3-biphenylyl)-4-[(4-methyl-1-piperidinyl)methyl]benzamide] |  | 220 nM
24 | O=C(Nc1cc(-c2ccccc2)ccc1O)c1ccc(CN2CCNCC2)cc1 [Example 83, N-(4-hydroxy-3-biphenylyl)-4-(1-piperazinylmethyl)benzamide] |  | 65 nM
25 | O=C(Nc1cc(-c2ccccc2)ccc1O)c1ccc(CNCCCc2ccncc2)cc1 [Example 109, N-(4-hydroxy-3-biphenylyl)-4-({[3-(4-pyridinyl)propyl]amino}methyl)benzamide] |  | 100 nM
26 | CN1CCN(Cc2ccc(C(=O)Nc3cc(-c4ccccc4)ccc3O)cc2)CC1 [Example 100, N-(4-hydroxy-3-biphenylyl)-4-[(4-methyl-1-piperazinyl)methyl]benzamide] |  | 2400 nM
27 | O=C(Nc1cc(-c2ccccc2)ccc1O)c1ccc(CNCCOc2ccccc2)cc1 [Example 96, N-(4-hydroxy-3-biphenylyl)-4-{[(2-phenoxyethyl)amino]methyl}benzamide] |  | 360 nM
28 | O=C(Nc1cc(-c2ccccc2)ccc1O)c1ccc(CNCc2cccnc2)cc1 [Example 81, N-(4-hydroxy-3-biphenylyl)-4-{[(3-pyridinylmethyl)amino]methyl}benzamide] |  | 32 nM
29 | CN(Cc1ccc(C(=O)Nc2cc(-c3ccccc3)ccc2O)cc1)c1ccncc1 [Example 103, N-(4-hydroxy-3-biphenylyl)-4-{[methyl(4-pyridinyl)amino]methyl}benzamide] |  | 13 nM
